Laboratory results published in patent US20220000835A1, “METHOD FOR TREATING CANCER WITH A COMBINATION OF QUERCETIN AND A CHEMOTHERAPY AGENT” (Quercis Pharma A.G., priority 2014, published 2022).

Columns and labels:
[1] = test system: metastatic bladder cancer; assay: Patient with tumor from metastatic bladder cancer, PET scan and patient report; type: in vivo, human; details: patient bearing a tumor from metastatic bladder cancer
Method: In a particular example, a patient bearing a tumor resulting from metastatic bladder cancer failed monotherapy with cisplatin. Subsequently, the patient was treated daily with 100 mg cyclophosphamide together with a composition containing 2 g of quercetin. […] Of note, this patient typically would not have been treated further after failing the monotherapy with cisplatin.

[2] = Stabilization of quercetin by vitamin B3 and/or vitamin C; type: physicochemical; details: in the presence of one or both of vitamin B3 and vitamin C

Compound	outcome of monotherapy [1]	stability of quercetin [2]
N.N.[Cl][Pt][Cl] [cisplatin]	failed	–
O=c1c(O)c(-c2ccc(O)c(O)c2)oc2cc(O)cc(O)c12 [quercetin]	–	stabilized
